Results reported in ChEMBL document CHEMBL6078680, “Improving the Stability and Anti-Infective Activity of Sea Turtle AMPs Using Multiple Structural Modification Strategies” (J Med Chem, 2024).
Activity calls are given as the source filed them. The calls are words filed in the database; no cut-off is given here. Positions of bridges follow the written chain, without caps; N, C: chain ends. Residues, ends and D or L forms follow the SMILES beside them.

Assays:
[1] = test system: Acinetobacter baumannii; assay: Antibiofilm activity against Acinetobacter baumannii ATCC 19606 assessed as inhibition of biofilm formation at 0.5 times MIC incubated for 48 hrs by crystal violet staining based analysis; assay type: functional
[2] = test system: Staphylococcus aureus; assay: Antimicrobial activity against Staphylococcus aureus CMCC 26003 at 5 times MIC measured at 180 mins; assay type: functional, organism-based
[3] = target: Trypsin (Homo sapiens, UniProt P07477+P07478+P35030); assay: Stability of compound assessed as trypsin (unknown origin) mediated drug degradation […] measured at 24 hrs by RP-HPLC analysis; assay type: ADME, protein assay; details: read-out: Activity
[4] = test system: Staphylococcus aureus; assay: Antibiofilm activity against Staphylococcus aureus CMCC 26003 assessed as biofilm eradication at 0.5 to 2 times MIC incubated for 24 hrs by crystal violet staining based analysis; assay type: functional
[5] = test system: Staphylococcus aureus; assay: Antipersister-activity against Staphylococcus aureus CMCC 26003 assessed as elimination of persister cells at 50 times MIC preincubated adherent persistent cells with colistin incubation for 24 hrs; assay type: functional
[6] = test system: Peritoneal macrophage; assay: Antiinflammatory activity in mouse Peritoneal macrophage cells assessed as inhibition of LPS-induced TNF-alpha production at 20 microg/ml incubated for 6 hrs by ELISA analysis; assay type: functional, cell-based; details: dose 20.0 µg/ml
[7] = test system: Peritoneal macrophage; assay: Antiinflammatory activity in mouse Peritoneal macrophage cells assessed as inhibition of LPS-induced IL-6 production at 20 microg/ml incubated for 6 hrs by ELISA analysis; assay type: functional, cell-based; details: dose 20.0 µg/ml
[8] = Hemolytic activity at human Erythrocyte assessed as hemolysis at 100 microg/ml; assay type: toxicity, cell-based; details: erythrocytes, at 100 µg/mL, read-out: Activity
[9] = test system: Staphylococcus aureus; assay: Antimicrobial activity against Staphylococcus aureus CMCC 26003 measured at 8 hrs in presence of mouse serum; assay type: functional, organism-based
[10] = test system: Peritoneal macrophage; assay: Cytotoxicity against mouse Peritoneal macrophage cells assessed as survival rate at 100 microg/ml; assay type: functional; details: read-out: Survival
[11] = test system: HaCaT; assay: Cytotoxicity against human HaCaT cells assessed as survival rate at 100 microg/ml; assay type: functional; details: read-out: Survival
[12] = Acute toxicity in BALB/c mouse assessed as effect on BUN level at 10 mg/kg, iv measured for 24 hrs; assay type: organism-based; details: in vivo
[13] = test system: Escherichia coli; assay: Antimicrobial activity against Escherichia coli ATCC 25922 measured at 8 hrs in presence of mouse serum; assay type: functional, organism-based

Structure (SMILES)	inhibition (INH) [1]	Activity [2]	metabolised at 24 h [3]	Activity [4]	Activity [5]	Activity [6]	Activity [7]	hemolysis at 100 microg/ml [8]	Activity [9]	viability at 100 µg/mL [10]	viability at 100 µg/mL [11]	Activity [12]	Activity [13]
CC[C@@H](C)[C@@H](NC(=O)[C@@H](CCCNC(=N)N)NC(=O)[C@@H](CO)NC(=O)[C@@H](Cc1c[nH]cn1)NC(=O)[C@@H](CCCNC(=N)N)NC(=O)[C@@H](CC(C)C)NC(=O)[C@H](NC(=O)[C@@H](CCCNC(=N)N)NC(=O)CNC(=O)[C@@H](CC(C)C)NC(=O)[C@@H](CCC(N)=O)NC(=O)[C@@H](CCCCN)NC(=O)[C@@H](CCCNC(=N)N)NC(=O)[C@H](NC(=O)[C@@H](CCCCN)NC(=O)[C@@H](CCCCN)NC(=O)[C@H](N)Cc1ccccc1)C(C)C)C(C)C)C(=O)N[C@@H](C(=O)N[C@@H](C(=O)NCC(=O)NCC(=O)N[C@H](CCCNC(=N)N)C(=O)N[C@H](CCSC)C(=O)N[C@H](CCCNC(=N)N)C(=O)N[C@H](Cc1ccccc1)C(=O)O)C(C)C)[C@H](C)O	10%	inactive	< 60%	20%	50%	Active	Active	< 5%	–	–	–	–	–
CC[C@H](C)[C@H](NC(=O)[C@H](CCCNC(=N)N)NC(=O)[C@H](CO)NC(=O)[C@H](Cc1c[nH]cn1)NC(=O)[C@H](CCCNC(=N)N)NC(=O)[C@@H]1CSSC[C@H](NC(=O)[C@H](CCCCN)NC(=O)[C@@H](N)Cc2ccccc2)C(=O)N[C@@H](CCCCN)C(=O)N[C@@H](C(C)C)C(=O)N[C@@H](CCCNC(=N)N)C(=O)N[C@@H](CCCCN)C(=O)N[C@@H](CCC(N)=O)C(=O)N[C@@H](CC(C)C)C(=O)NCC(=O)N[C@@H](CCCNC(=N)N)C(=O)N[C@@H](C(C)C)C(=O)N[C@@H](CC(C)C)C(=O)N1)C(=O)N[C@H](C(=O)N[C@H](C(=O)NCC(=O)NCC(=O)N[C@@H](CCCNC(=N)N)C(=O)N[C@@H](CCSC)C(=O)N[C@@H](CCCNC(=N)N)C(=O)N[C@@H](Cc1ccccc1)C(=O)O)C(C)C)[C@@H](C)O (H-FKCKVRKQLGRVLCRHSRITVGGRMRF-OH; disulfide 3-14)	–	inactive	–	–	–	Active	Active	< 5%	inactive	> 80%	> 80%	Non-toxic	–
CC[C@H](C)[C@@H]1NC(=O)[C@H](CCCNC(=N)N)NC(=O)[C@H](CO)NC(=O)[C@@H](NC(=O)[C@H](Cc2c[nH]cn2)NC(=O)[C@H](CCCNC(=N)N)NC(=O)[C@H](CC(C)C)NC(=O)[C@@H](NC(=O)[C@H](CCCNC(=N)N)NC(=O)CNC(=O)[C@H](CC(C)C)NC(=O)[C@H](CCC(N)=O)NC(=O)[C@H](CCCCN)NC(=O)[C@H](CCCNC(=N)N)NC(=O)[C@@H](NC(=O)[C@H](CCCCN)NC(=O)[C@H](CCCCN)NC(=O)[C@@H](N)Cc2ccccc2)C(C)C)C(C)C)CSSC[C@@H](C(=O)O)NC(=O)[C@H](Cc2ccccc2)NC(=O)[C@H](CCCNC(=N)N)NC(=O)[C@H](CCSC)NC(=O)[C@H](CCCNC(=N)N)NC(=O)CNC(=O)CNC(=O)[C@H](C(C)C)NC(=O)[C@H]([C@@H](C)O)NC1=O (H-FKKVRKQLGRVLRHCSRITVGGRMRFC-OH; disulfide 15-27)	–	inactive	–	–	–	Active	Active	< 5%	inactive	> 80%	> 80%	–	inactive
